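Growth conditions: 96-well plates. Treatment: test compound, 48 hours, 5 concentrations. Analysis: linear interpolation between bracketing concentrations; unreached endpoints set to highest concentration. The concentration for 50% growth inhibition is given as GI50.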 Active and inactive are the calls of the source. Rule as the data show it: active = GI50 up to about 1.1 µM and inactive = higher.

Experimental findings from ChEMBL document CHEMBL1201862, “PubChem BioAssay data set” (2004) are described below.

Assay in all cases: NCI-60 cell line screen, 48 h
For assay [1], the system named is EKVX.
In assay [2] the test system is RXF 393.
In assay [3] the test system is HT-29.
For assay [4], the system named is UO-31.
For assay [5], the system named is SNB-19.
Assay [6] concerns NCI-H226.
Assay [7] deals with SF-295.
The test system of assay [8] is OVCAR-5.
Assay [9] relates to OVCAR-8.
Assay [10] deals with SNB-75.
In assay [11] the test system is UACC-257.
For assay [12], the system named is SF-539.
Assay [13] relates to SN12C.
The test system of assay [14] is HCT-15.
Assay [15] relates to SF-268.
Assay [16] relates to ACHN.
Assay [17] has as its system UACC-62.
Assay [18] relates to SK-MEL-5.
Assay [19] has as its system CCRF-CEM.
The test system of assay [20] is OVCAR-4.

Regarding `CC(C)=CCC/C(C)=C/C=C/C(C)=C/C1C[C@@]2(C(O)O1)[C@H](CCCO)/C(=C(/C)C=O)CC[C@]2(C)O` (stereo partly drawn), the GI50 was 11.9 µM (inactive) in [1]; 18.6 µM (inactive) in [2]; 16.4 µM (inactive) in [3]; 17.3 µM (inactive) in assay [4]; 19.1 µM (inactive) in assay [5]; 22.4 µM (inactive) in [6]. Further, the GI50 was 11.4 µM (inactive) in assay [7]; 40.8 µM (inactive) in assay [8]; 22 µM (inactive) in assay [9]; 51.9 µM (inactive) in [10]; 25.4 µM (inactive) in assay [11]; 12.2 µM (inactive) in [12]. Moreover, the GI50 was 15.6 µM (inactive) in assay [13], 16.3 µM in assay [14], 15.2 µM (inactive) in assay [15] and 11.6 µM (inactive) in [16].

For the compound `CC1CC[P+](c2ccccc2)(c2ccccc2)c2c1ccc1ccccc21` (stereo not drawn), the GI50 in [17] is 2.51 µM (inactive); in assay [2] it was 9.08 µM (inactive); in assay [3], 2.28 µM (inactive); in assay [4], 15.9 µM (inactive); in [5], 2.44 µM (inactive); in assay [18], 0.83 µM (active). In addition, the GI50 in [7] is 3.5 µM (inactive); in assay [8], 5.26 µM (inactive); in assay [9] it was 1.84 µM (inactive); in assay [10] it was 2.37 µM (inactive); in assay [19], 3.78 µM (inactive); in assay [11], 0.385 µM (active). Moreover, the GI50 is 5.26 µM (inactive) in assay [12]; 2.49 µM (inactive) in assay [13]; 6.76 µM (inactive) in assay [20]; 31.9 µM in [14]; 4.35 µM (inactive) in assay [15]; 9.62 µM (inactive) in [16].

`CCCCCCCCCCCCCC(=O)OC1C(O)C(CO)OC(OC)C1NC(=O)N(CCCl)N=O` (stereo not drawn): the GI50 in assay [17] was 5.06 µM (inactive); in [2], 47 µM (inactive); in assay [3], 56.6 µM (inactive); in assay [4], > 100 µM (inactive); in [5] it was 23.7 µM (inactive); in assay [6], > 100 µM (inactive). The GI50 was 45.2 µM (inactive) in assay [18]; 29 µM (inactive) in assay [7]; > 100 µM (inactive) in assay [8]; 43.6 µM (inactive) in [9]; 38.6 µM (inactive) in assay [10]; 28.8 µM (inactive) in assay [11]. In addition, the GI50 in assay [12] was 16.4 µM (inactive); in assay [13] it was 37 µM (inactive); in assay [20], > 100 µM (inactive); in assay [14] it was greater than 100 µM; in [15], 6.27 µM (inactive); in assay [16], 41.4 µM (inactive).

With `Cc1cn([C@@H]2C[C@](C)(CO)N(C)O2)c(=O)[nH]c1=O`, the GI50 in assay [17], in assay [1], in assay [2], in assay [3], in assay [4] and in assay [5] was > 100 µM (inactive) each time. Further, the GI50 is > 100 µM (inactive) in [6]; > 100 µM (inactive) in assay [18]; > 100 µM (inactive) in assay [7]; > 100 µM (inactive) in assay [8]; > 100 µM (inactive) in [9]; 8.53 µM (inactive) in [10]. Besides, the GI50 is > 100 µM (inactive) in assay [19]; > 100 µM (inactive) in assay [11]; > 100 µM (inactive) in [13]; > 100 µM (inactive) in assay [20]; greater than 100 µM in assay [14]; > 100 µM (inactive) in [15]. Also, in assay [16], the GI50 is > 100 µM (inactive).

With `COc1cc(/C=C2\CCC(C)/C(=C\c3cc(OC)c(OC)c(OC)c3)C2=O)cc(OC)c1OC` (stereo not drawn), the GI50 is 1.82 µM (inactive) in assay [17]; 3.21 µM (inactive) in [1]; 2.55 µM (inactive) in assay [2]; 3.21 µM (inactive) in [3]; 3.99 µM (inactive) in [4]; 4.51 µM (inactive) in assay [5]. Besides, the GI50 in assay [18] was 2.21 µM (inactive); in [8], 3.38 µM (inactive); in [9], 2.4 µM (inactive); in assay [10] it was 18.2 µM (inactive); in [19], 1.29 µM (inactive); in [11], 3.78 µM (inactive). The GI50 in assay [13] was 3.56 µM (inactive); in [14], 1.99 µM; in assay [15] it was 3.37 µM (inactive); in [16], 3.02 µM (inactive).

As to `CNC(=S)Nc1sc2c(c1C#N)CCCC2`, the GI50 in assay [17], in [1], in assay [2], in assay [3], in [4] and in assay [5] was > 75 µM (inactive) each time. The GI50 in [6], in [18], in assay [7], in [8], in [9] and in assay [10] was > 75 µM (inactive) throughout. For the same compound, the GI50 was > 75 µM (inactive) in [11]; > 75 µM (inactive) in [13]; > 75 µM (inactive) in assay [20]; greater than 75 µM in assay [14]; > 75 µM (inactive) in assay [15]; > 75 µM (inactive) in assay [16].

For the compound `C1CSCCSCSCCS1`, the GI50 in [17], in assay [1], in assay [2], in [3], in [4] and in assay [5] was > 100 µM (inactive) in each case. The GI50 in assay [6] is > 100 µM (inactive); in [18] it was > 100 µM (inactive); in assay [7], > 100 µM (inactive); in assay [8] it was > 100 µM (inactive); in [9], > 100 µM (inactive); in [10], 48.3 µM (inactive). Also, the GI50 in assay [11] was > 100 µM (inactive); in [12] it was > 100 µM (inactive); in assay [13], > 100 µM (inactive); in [20] it was > 100 µM (inactive); in assay [14] it was greater than 100 µM; in assay [15], > 100 µM (inactive). For the same compound, in assay [16], the GI50 was > 100 µM (inactive).

`CCCCNC(=O)N/C=C1\C(=O)Oc2ccccc2C1=O`: the GI50 in [17] is 33.4 µM (inactive); in [1] it was > 100 µM (inactive); in assay [2], 15 µM (inactive); in [3], > 100 µM (inactive); in assay [4] it was 11.8 µM (inactive); in [5] it was 26.5 µM (inactive). The GI50 in assay [6] was 32.7 µM (inactive); in assay [18], > 100 µM (inactive); in assay [8] it was 68.5 µM (inactive); in [9], 74.1 µM (inactive); in assay [11], 55.7 µM (inactive); in assay [12], 39.4 µM (inactive). In addition, the GI50 in assay [13] is 29.5 µM (inactive); in assay [20], 57.3 µM (inactive); in assay [14], 28.8 µM; in [15], 34.4 µM (inactive); in assay [16], 24.5 µM (inactive).

As for `c1cncc(O[Si](Oc2cccnc2)(Oc2cccnc2)Oc2cccnc2)c1`, the GI50 in assay [17], in assay [1], in assay [2], in [3], in assay [4] and in assay [5] was > 100 µM (inactive) each time. Also, the GI50 in assay [6], in assay [18], in assay [7], in assay [8], in [9] and in assay [10] was > 100 µM (inactive) in each case. Moreover, the GI50 is > 100 µM (inactive) in assay [11]; > 100 µM (inactive) in [12]; > 100 µM (inactive) in assay [13]; > 100 µM (inactive) in assay [20]; greater than 100 µM in assay [14].

With `C[C@@H]1CC[C@H]2[C@H]1[C@H]1[C@@H](CC[C@]2(C)N=C=S)C1(C)C`, the GI50 in assay [17] was 21.8 µM (inactive); in assay [2], 15.5 µM (inactive); in assay [3] it was 19.9 µM (inactive); in assay [4] it was 32.1 µM (inactive); in assay [5] it was > 10 µM (inactive); in assay [6], 17.7 µM (inactive). Moreover, the GI50 in assay [18] is 17.5 µM (inactive); in [7], 21.4 µM (inactive); in assay [8] it was 28.3 µM (inactive); in assay [9] it was 41.7 µM (inactive); in [10], 50.5 µM (inactive); in [19], 13.3 µM (inactive). For the same compound, the GI50 in assay [11] was 25.8 µM (inactive); in [13], 19.6 µM (inactive); in [20], 44.9 µM (inactive); in assay [14], 27.8 µM.

In the case of `C#Cc1cccc(N2C(=O)c3c(c(-c4ccccc4)c(-c4ccc(Cc5ccc(-c6c(-c7ccccc7)c7c(c(-c8ccccc8)c6-c6ccccc6)C(=O)N(c6cccc(C#C)c6)C7=O)cc5)cc4)c(-c4ccccc4)c3-c3ccccc3)C2=O)c1`, the GI50 in assay [17] was 5.6 µM (inactive); in [1], 51.2 µM (inactive); in assay [2], 15.9 µM (inactive); in assay [3] it was 51.4 µM (inactive); in assay [4] it was 36.7 µM (inactive); in [5], 40 µM (inactive). Also, the GI50 in assay [18] was 21.9 µM (inactive); in [7] it was 37.8 µM (inactive); in assay [8] it was > 100 µM (inactive); in assay [9], 31.5 µM (inactive); in assay [10], 16.3 µM (inactive); in assay [19] it was 26.6 µM (inactive). In addition, the GI50 was 47.3 µM (inactive) in assay [11]; 21.2 µM (inactive) in assay [12]; 20.7 µM (inactive) in assay [13]; > 100 µM (inactive) in [20]; 7.85 µM in assay [14]; 15 µM (inactive) in assay [15]. Further, the GI50 in [16] is 15.9 µM (inactive).
